# Data from patent US7456225B1, “Liver protection compounds of the cyclohexenone type from Antrodia camphorata” (Golden Biotechnology Corporation, priority 2007, dated 2008).
# Marks after values point to notes of the source that are not given here.
# Tested on: CCl4-induced liver fibrosis in rats
# Assay: Histological evaluation of liver fibrosis (Masson's trichrome, 0-4 scale)
# Type: in vivo, Sprague-Dawley (SD) rats
# Conditions: for Liver fibrosis score: 0-4 scale, CCl4-treated rats, 8 weeks; for Liver fibrosis +, counts of pathological rats: level 1, portal fibrosis without septa; for Liver fibrosis ++, counts of pathological rats: level 2, incomplete septa; for Liver fibrosis +++, counts of pathological rats: level 3, intact septal fibrosis and bridging; for Liver fibrosis ++++, counts of pathological rats: level 4, complete thick septa, definite cirrhosis
# Description: The animal model was performed with five-week-old Sprague-Dawley (SD) rats purchased from BioLasco Taiwan Co., Ltd. Healthy rats weighing 220-270 g were chosen for experiment after observing for 2 weeks in the laboratory animal room. The rats were randomly divided into 6 groups (12 rats/group): normal (gp. A); control groups including model control (gp. B) and positive control (gp. C, animals receiving silymarin); treatment groups including animals receiving 300 mg/kg of cyclohexenone (gp. D), 1000 mg/kg of cyclohexenone (gp. E), and 3000 mg/kg of cyclohexenone (gp. F), as indicated in Table 1. Only normal group was not poisoned with CCl4. The body weights were recorded to calculate the dosage. […] It helps to remove toxins from liver cells by either neutralizing the toxicity of toxic compounds or competing with the binding sites in liver. It is a potent antioxidant, protects the liver from free radicals. It has been widely studied for treating various types of liver injury in animals and clinical trials. The beneficial effects on liver protection have made silymarin a good medicine for liver diseases and a drug in positive control group for the animal model of liver injury.
# Rats in normal group (group A) were fed with corn oil (Sigma chemical co.) by means of stomach tubes. Carbon tetrachloride (Shimakyu, Osaka, Japan) was administered to groups B to F via stomach tubes twice weekly (every Tuesday and Thursday afternoon) for 8 weeks, at a dose of 2 ml/kg of body weight, diluted with corn oil. Silymarin was prepared with saline in an amount of 200 mg/kg of body weight and was fed to rats of group C via a stomach tube. Cyclohexenone prepared from example 1 was mixed with saline, and fed in the amounts of 300 mg/kg, 1000 mg/kg and 3000 mg/kg of body weight to rats of group D to F via stomach tubes. The total feeding volume was estimated in the ratio of 10 ml/kg of body weight to groups C to F five days a week (every morning) for 8 weeks. The body weights of rats and the amounts of food intake in rats for each group were shown in FIG. 1 and FIG. 2, respectively.
# The pathological changes of the liver surface were examined with naked eyes when the liver was taken out from rats, and then tissue sections were made. Half of each liver lobe was stored at −80° C. for antioxidant enzyme assay to follow up. The rest of liver tissues were fixed in 10% formalin for one week, embedded in paraffin cut into 2 μm sections, and stained with Hematoxyline-eosin (H&E) to visualize the lipid deposition, inflammation, cell necrosis and fibrosis, or stained with Masson's trichromic solution to visualize extracellular matrix and collagen fibers for liver fibrosis development. The pathological changes of liver injury were evaluated under light microscope (Opticphot-2, Nikon, Tokyo, Japan) after stained with the abovementioned solution.
# Liver fibrosis was evaluated semiquantitatively according to the scoring methods from Gabriele et al. (Gabriele, B. 1997. Silymarin retards collagen accumulation in early and advanced biliary fibrosis secondary to complete bile duct obliteration in rats. Hepatology 26: 643-649) and Wang et al. (Wang, G. S., Eriksson, L. C., Xia, L., Olsson, J. and Stal, P. 1999. Dietary iron overload inhibits carbon tetrachloride-induced promotion in chemical hepatocarcinogenesis: effects on cell proliferation, apoptosis, and antioxidation. J. Hepatol. 30(4):689-98.). Fibrosis was staged on a 0-4 scale: level 0, no fibrosis, normal liver tissue; level 1, proliferation of collagen, portal fibrosis without septa (proliferation of radiating fiber in central vein or periportal region); level 2, incomplete septa between central vein and periportal region (septa without bridging); level 3, intact septal fibrosis and bridging, many nodules in liver, the septa is thin; and level 4, complete thick septa, definite cirrhosis. The results are shown in FIG. 3 to FIG. 5, and Table 3.
structure (smiles),measurement,setting,value
"COC1=C(OC)C(O)C(C/C=C(\C)CC/C=C(\C)CCC=C(C)C)C(C)C1=O (centres unmarked) [Cyclohexenone from Antrodia camphorata, 4-hydroxy-2,3-dimethoxy-6-methyl-5(3,7,11-trimethyl-dodeca-2,6,10-trienyl)-cyclohex-2-enone]",Liver fibrosis score,cyclohexenone 300 mg/kg,1.8*^a
same,Liver fibrosis score,"cyclohexenone 300 mg/kg, listed as cyclohexenone from Antrodia camphorata",1.8
same,Liver fibrosis score,cyclohexenone 1000 mg/kg,2.0*^a
same,Liver fibrosis score,cyclohexenone 3000 mg/kg,2.5*
same,"Liver fibrosis −, counts of pathological rats","level 0, no fibrosis, cyclohexenone 1000 mg/kg",2
same,"Liver fibrosis +, counts of pathological rats",cyclohexenone 300 mg/kg,6
same,"Liver fibrosis +, counts of pathological rats",cyclohexenone 1000 mg/kg,1
same,"Liver fibrosis +, counts of pathological rats",cyclohexenone 3000 mg/kg,2
same,"Liver fibrosis ++, counts of pathological rats",cyclohexenone 300 mg/kg,4
same,"Liver fibrosis ++, counts of pathological rats",cyclohexenone 1000 mg/kg,4
same,"Liver fibrosis ++, counts of pathological rats",cyclohexenone 3000 mg/kg,4
same,"Liver fibrosis +++, counts of pathological rats",cyclohexenone 300 mg/kg,1
same,"Liver fibrosis +++, counts of pathological rats",cyclohexenone 1000 mg/kg,3
same,"Liver fibrosis +++, counts of pathological rats",cyclohexenone 3000 mg/kg,3
same,"Liver fibrosis ++++, counts of pathological rats",cyclohexenone 300 mg/kg,1
same,"Liver fibrosis ++++, counts of pathological rats",cyclohexenone 1000 mg/kg,1
same,"Liver fibrosis ++++, counts of pathological rats",cyclohexenone 3000 mg/kg,2
